Experimental data published in patent US10316017B2, “COT modulators and methods of use thereof” (Gilead Sciences, Inc., priority 2015, dated 2019).

Key:
[1] = target: T1, human Cot catalytic domain (30-397 amino acids) (Homo sapiens, UniProt P41279); assay: High Throughput Cot Biochemical Assay (KinEASE TR-FRET); details: Cot biochemical HTRF (KinEASE TR-FRET) assay; read-out: IC50 HTRF
T1 construct: Purified recombinant human Cot catalytic domain (30-397 amino acids) was purchased from Cama Biosciences; purchased Cama Biosciences (so in the source)
Procedure, shortened: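 TR-FRET readout: Eu-labeled phospho-specific antibody binds XL665-tagged STK3 peptide after phosphorylation by Cot (aa 30-397, 5 nM). Conditions: 400 μM ATP, 1 μM peptide, MOPS pH 7.0 buffer with MgOAc, DTT, BSA, NP-40, glycerol; 0.1% DMSO.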

[2] = tested on: TNFα production in LPS-stimulated human monocytes; assay: Cot Monocyte TNFα Cell Based Assay; details: Homo sapiens, Monocyte, TNFα in LPS-stimulated human monocytes; read-out: EC50 TNF
Procedure, shortened: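 TR-FRET read-out of total secreted TNFα, normalized as % control (unstimulated = 0%, LPS-stimulated = 100%). Cells (5,000/well) were exposed to compound 1 h at 37 °C, then to 50 pg/ml LPS for a further 4 h.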

T1 sequence (P41279 30-397): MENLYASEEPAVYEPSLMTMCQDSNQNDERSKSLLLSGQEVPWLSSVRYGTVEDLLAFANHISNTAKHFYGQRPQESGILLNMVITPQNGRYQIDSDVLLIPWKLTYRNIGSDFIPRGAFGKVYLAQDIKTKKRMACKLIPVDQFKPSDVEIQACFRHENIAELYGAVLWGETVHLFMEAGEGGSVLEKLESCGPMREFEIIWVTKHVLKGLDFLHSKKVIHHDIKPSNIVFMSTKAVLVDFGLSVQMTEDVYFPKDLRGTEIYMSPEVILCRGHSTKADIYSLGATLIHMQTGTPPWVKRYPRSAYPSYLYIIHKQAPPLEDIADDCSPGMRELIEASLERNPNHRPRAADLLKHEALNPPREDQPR

Row | IC50 [1] [µM] | EC50 [2] [µM] | Compound
1 | 0.003 | 0.124 | COC(=O)c1cccc([C@H](Nc2cc(Cl)c3ncc(C#N)c(Nc4ccc(F)c(Cl)c4)c3c2)c2cn(C3CCN(C(C)(C)C)CC3)nn2)c1 [Example 728, methyl (S)-3-((1-(1-(tert-butyl)piperidin-4-yl)-1H-1,2,3-triazol-4-yl)((8-chloro-4-((3-chloro-4-fluorophenyl)amino)-3-cyanoquinolin-6-yl)amino)methyl)benzoate]
2 | 0.032 | 0.532 | N#Cc1cnc2c(Cl)cc(N[C@@H](c3ccccc3)c3cn(Cc4ccccn4)nn3)cc2c1Nc1ccc(F)c(Cl)c1 [Example 729, (S)-8-chloro-4-((3-chloro-4-fluorophenyl)amino)-6-((phenyl (1-(pyridin-2-ylmethyl)-1H-1,2,3-triazol-4-yl)methyl)amino)quinoline-3-carbonitrile]
3 | 0.078 | 4.45 | CC(C)(C)N1CCC(n2cc([C@@H](Nc3cc(Cl)c4ncc(C#N)c(Nc5ccc(Cl)c(Cl)c5F)c4c3)c3ccc(Cl)cc3)nn2)CC1 [Example 731, (S)-6-(((1-(1-(tert-butyl)piperidin-4-yl)-1H-1,2,3-triazol-4-yl)(4-chlorophenyl)methyl)amino)-8-chloro-4-((3,4-dichloro-2-fluorophenyl)amino)quinoline-3-carbonitrile]
4 | 0.006 | 0.884 | CC(C)(C)N1CCC(n2cc([C@@H](Nc3cc(Cl)c4ncc(C#N)c(Nc5ccc(F)c(Cl)c5)c4c3)c3cccc(CN4CCOCC4)c3)nn2)CC1 [Example 733, (S)-6-(((1-(1-(tert-butyl)piperidin-4-yl)-1H-1,2,3-triazol-4-yl)(3-(morpholinomethyl)phenyl)methyl)amino)-8-chloro-4-((3-chloro-4-fluorophenyl)amino)quinoline-3-carbonitrile]
5 | 0.151 | 3.9 | Cc1nnc(C(Nc2cc(Cl)c3ncc(C#N)c(Nc4ccc(F)c(Cl)c4)c3c2)c2ccc(F)cc2)o1 (centres unmarked) [Example 734, 8-chloro-4-((3-chloro-4-fluorophenyl)amino)-6-(((4-fluorophenyl)(5-methyl-1,3,4-oxadiazol-2-yl)methyl)amino)quinoline-3-carbonitrile]
6 | 0.041 | 0.376 | CN1CC(n2cc([C@@H](Nc3cc(Cl)c4ncc(C#N)c(Nc5ccc(F)c(Cl)c5)c4c3)c3ccccc3)nn2)CC(F)(F)C1 (stereo partly drawn) [Example 736, 8-chloro-4-((3-chloro-4-fluorophenyl)amino)-6-(((1S)-(1-(5,5-difluoro-1-methylpiperidin-3-yl)-1H-1,2,3-triazol-4-yl)(phenyl)methyl)amino) quinoline-3-carbonitrile]
7 | 0.021 | 0.411 | N#Cc1cnc2c(Cl)cc(N[C@@H](c3ccccc3)c3cn(CCN4CCOCC4)nn3)cc2c1Nc1ccc(F)c(Cl)c1 [Example 737, (S)-8-chloro-4-((3-chloro-4-fluorophenyl)amino)-6-(((1-(2-morpholinoethyl)-1H-1,2,3-triazol-4-yl)(phenyl)methyl)amino)quinoline-3-carbonitrile]
8 | 0.007 | 0.274 | N#Cc1cnc2c(Cl)cc(N[C@@H](c3ccccc3)c3cn(CCO)nn3)cc2c1Nc1ccc(F)c(Cl)c1 [Example 738, (S)-8-chloro-4-((3-chloro-4-fluorophenyl)amino)-6-(((1-(2-hydroxyethyl)-1H-1,2,3-triazol-4-yl)(phenyl)methyl)amino)quinoline-3-carbonitrile]
9 | 0.022 | 1.1 | CC(C)(C)N1CCC(n2cc([C@@H](Nc3cc(Cl)c4ncc(C#N)c(Nc5cccc(Cl)c5F)c4c3)c3ccc(Cl)cc3)nn2)CC1 [Example 739, (S)-6-(((1-(1-(tert-butyl)piperidin-4-yl)-1H-1,2,3-triazol-4-yl)(4-chlorophenyl)methyl)amino)-8-chloro-4-((3-chloro-2-fluorophenyl)amino)quinoline-3-carbonitrile]
10 | 0.244 | 5.55 | CC(C)(C)N1CCC(n2cc([C@@H](Nc3cc(Cl)c4ncc(C#N)c(Nc5ccc(Cl)cc5)c4c3)c3ccc(Cl)cc3)nn2)CC1 [Example 740, (S)-6-(((1-(1-(tert-butyl)piperidin-4-yl)-1H-1,2,3-triazol-4-yl)(4-chlorophenyl)methyl)amino)-8-chloro-4-((4-chlorophenyl)amino)quinoline-3-carbonitrile]
11 | 0.122 | 1.24 | Cc1cccc(Nc2c(C#N)cnc3c(Cl)cc(N[C@@H](c4ccc(Cl)cc4)c4cn(C5CCN(C(C)(C)C)CC5)nn4)cc23)c1 [Example 741, (S)-6-(((1-(1-(tert-butyl)piperidin-4-yl)-1H-1,2,3-triazol-4-yl)(4-chlorophenyl)methyl)amino)-8-chloro-4-(m-tolylamino)quinoline-3-carbonitrile]
12 | 0.315 | 1.77 | Cc1ccc(Nc2c(C#N)cnc3c(Cl)cc(N[C@@H](c4ccc(Cl)cc4)c4cn(C5CCN(C(C)(C)C)CC5)nn4)cc23)cc1 [Example 742, (S)-6-(((1-(1-(tert-butyl)piperidin-4-yl)-1H-1,2,3-triazol-4-yl)(4-chlorophenyl)methyl)amino)-8-chloro-4-(p-tolylamino)quinoline-3-carbonitrile]
13 | 0.029 | 0.575 | CCN1CC[C@@H](n2cc([C@@H](Nc3cc(Cl)c4ncc(C#N)c(Nc5ccc(F)c(Cl)c5)c4c3)c3ccccc3)nn2)[C@H](F)C1 [Example 743, 8-chloro-4-((3-chloro-4-fluorophenyl)amino)-6-(((S)-(1-((3R,4R)-1-ethyl-3-fluoropiperidin-4-yl)-1H-1,2,3-triazol-4-yl)(phenyl)methyl)amino)quinoline-3-carbonitrile]
14 | 0.013 | 0.363 | N#Cc1cnc2c(Cl)cc(N[C@@H](c3ccccc3)c3cn([C@@H]4CCNC[C@H]4F)nn3)cc2c1Nc1ccc(F)c(Cl)c1 [Example 744, 8-chloro-4-((3-chloro-4-fluorophenyl)amino)-6-(((S)-(1-((3R,4R)-3-fluoropiperidin-4-yl)-1H-1,2,3-triazol-4-yl)(phenyl)methyl)amino) quinoline-3-carbonitrile]
15 | 0.07 | 0.615 | CCN1CC(n2cc([C@@H](Nc3cc(Cl)c4ncc(C#N)c(Nc5ccc(F)c(Cl)c5)c4c3)c3ccccc3)nn2)CC(F)(F)C1 (stereo partly drawn) [Example 745, 8-chloro-4-((3-chloro-4-fluorophenyl)amino)-6-(((1S)-(1-(1-ethyl-5,5-difluoropiperidin-3-yl)-1H-1,2,3-triazol-4-yl)(phenyl)methyl)amino) quinoline-3-carbonitrile]
16 | 0.029 | 0.349 | N#Cc1cnc2c(Cl)cc(N[C@@H](c3ccccc3)c3cn(CC(=O)N4CCOCC4)nn3)cc2c1Nc1ccc(F)c(Cl)c1 [Example 746, (S)-8-chloro-4-((3-chloro-4-fluorophenyl)amino)-6-(((1-(2-morpholino-2-oxoethyl)-1H-1,2,3-triazol-4-yl)(phenyl)methyl)amino) quinoline-3-carbonitrile]
17 | 0.004 | 0.11 | CCN1CC(Cn2cc([C@@H](Nc3cc(Cl)c4ncc(C#N)c(Nc5ccc(F)c(Cl)c5)c4c3)c3ccccc3)nn2)C1 [Example 747, (S)-8-chloro-4-((3-chloro-4-fluorophenyl)amino)-6-(((1-((1-ethylazetidin-3-yl)methyl)-1H-1,2,3-triazol-4-yl)(phenyl)methyl)amino) quinoline-3-carbonitrile]
18 | 0.06 | 0.61 | N#Cc1cnc2c(Cl)cc(N[C@@H](c3ccccc3)c3cn(C4CNCC(F)(F)C4)nn3)cc2c1Nc1ccc(F)c(Cl)c1 (stereo partly drawn) [Example 748, 8-chloro-4-((3-chloro-4-fluorophenyl)amino)-6-(((1S)-(1-(5,5-difluoropiperidin-3-yl)-1H-1,2,3-triazol-4-yl)(phenyl)methyl)amino) quinoline-3-carbonitrile]
19 | 1.89 | 4.72 | CC(C)(C)N1CCC(n2cc([C@@H](Nc3cc(Cl)c4ncc(C#N)c(Nc5ccc(C(F)(F)F)nc5)c4c3)c3ccc(Cl)cc3)nn2)CC1 [Example 750, (S)-6-(((1-(1-(tert-butyl)piperidin-4-yl)-1H-1,2,3-triazol-4-yl)(4-chlorophenyl)methyl)amino)-8-chloro-4-((6-(trifluoromethyl)pyridin-3-yl)amino)quinoline-3-carbonitrile]
20 | 0.088 | 1.68 | CC(C)(C)N1CCC(n2cc([C@@H](Nc3cc(Cl)c4ncc(C#N)c(Nc5cccc(C#N)c5)c4c3)c3ccc(Cl)cc3)nn2)CC1 [Example 753, (S)-6-(((1-(1-(tert-butyl)piperidin-4-yl)-1H-1,2,3-triazol-4-yl)(4-chlorophenyl)methyl)amino)-8-chloro-4-((3-cyanophenyl)amino)quinoline-3-carbonitrile]
21 | 0.201 | 3.2 | CC(C)(C)N1CCC(n2cc([C@@H](Nc3cc(Cl)c4ncc(C#N)c(Nc5ccc(Cl)c(F)c5)c4c3)c3ccc(Cl)cc3)nn2)CC1 [Example 755, (S)-6-(((1-(1-(tert-butyl)piperidin-4-yl)-1H-1,2,3-triazol-4-yl)(4-chlorophenyl)methyl)amino)-8-chloro-4-((4-chloro-3-fluorophenyl)amino)quinoline-3-carbonitrile]
22 | 0.108 | 2.98 | CC(C)(C)N1CCC(n2cc([C@@H](Nc3cc(Cl)c4ncc(C#N)c(Nc5cc(Cl)cc(Cl)c5)c4c3)c3ccc(Cl)cc3)nn2)CC1 [Example 756, (S)-6-(((1-(1-(tert-butyl)piperidin-4-yl)-1H-1,2,3-triazol-4-yl)(4-chlorophenyl)methyl)amino)-8-chloro-4-((3,5-dichlorophenyl)amino)quinoline-3-carbonitrile]
